Measurements: article PMC2673211, “Nitric oxide activates ATP-sensitive potassium channels in mammalian sensory neurons: action by direct S-nitrosylation” (Molecular Pain, 2009)

Key:
[1] = biological target: T1, KATP channels in large DRG neurons (Rattus norvegicus, UniProt P70673+Q09429); test: Cell-attached single-channel patch-clamp recording of KATP channel activity (NPo); type: cell-based; conditions: for NPo steady-state value 10 minutes after application of SNAP: SNAP 100 μM, n = 7
T1 construct: native KATP channels in large DRG neurons; endogenous in cells; host or cells: acutely dissociated large-diameter neurons from rat L4/L5 dorsal root ganglia (sham-operated or spinal nerve ligated animals)
Description: We harvested control (L4 and L5) or axotomized (L5) ganglia, from control (SS) or hyperalgesic rats (SNL) respectively, between the 17th and 28th postoperative days. We sacrificed animals by decapitation under deep isoflurane anesthesia, excised ganglia through a lumbar incision, and at the same time confirmed accuracy of initial surgery.
For patch-clamp recordings, we placed excised DRG into separate 35 mm Petri dishes containing cold, oxygenated, Hanks Balanced Salt Solution (Gibko, Invitrogen, Grand Islan, NY), and minced them with iris scissors. We dissociated ganglia enzymatically in a solution containing 0.25 ml 0.05% w:v liberase blendzyme 2 (Roche Diagnostics Corp., Indianapolis, IN) and 0.25 ml DMEM/F12 with glutaMAX (Dulbecco's modified Eagle's medium F12; Gibco, Invitrogen Corp., Carlsbad, CA) in an incubator at 37°C for 30 min. […] Finally, we plated cells onto poly-l-lysine-coated 12-mm glass coverslips (Deutsche Spiegelglas; Carolina Biologic Supply, Burlington, NC), kept them in a humidified incubator at 37°C with 95% air and 5% CO2, and studied them within 3–8 h of dissociation.
We visualized plated neurons using an inverted Nikon Diaphot 300 microscope with Hoffman modulation optic system. […] Large neuronal somata, roughly correspond to large, myelinated Aβ fibers.
(§1) We recorded current passing through single channels in inside-out or cell-attached patch configurations. In cell-attached patches, both bath and pipette (extracellular) solutions were composed of the following: 140 mM KCl, 10 mM HEPES, 5.5 mM dextrose, and 1 mM EGTA. In inside-out patches, the bath (intracellular) solution contained 140 mM KCl, 1.2 mM MgCl2, 10 mM HEPES, 1.5 mM EGTA and 5.5 mM dextrose. The pipette (extracellular) solution was of the same composition as that used in cell-attached recordings. The pH of all solutions was adjusted to 7.4 with KOH. Osmolality was adjusted approximately to 300 mOsm/l by adding sucrose if necessary. We pulled patch micropipettes from borosilicate glass capillaries using a Flaming/Brown micropipette puller, model P-97 (Sutter, San Rafael, CA) and flame polished them with a microforge polisher (Narishige, Tokyo, Japan) prior to use. Their resistance ranged between 3 and 6 MΩ when filled with the internal solution, and placed into the recording solutions.
Sampling frequency of single-channel data was 5 KHz with a low-pass filter (1 KHz). […] We applied a conventional 50% current amplitude threshold level criterion to determine open events. Channel open probability (Po) was determined from the ratios of the area under the peaks in the amplitude histograms fitted by a Gaussian distribution. We calculated channel activity as NPo (where N is the number of observed channels in the patch) from data samples of either 30 s (in inside-out recordings), or 60 s (in cell-attached recordings), in the steady state. In inside-out recordings, NPo of the KATP channels was normalized to the baseline NPo value obtained before test drugs at bathing solution without ATP (indicating relative channel activity).

[2] = biological target: T2, wild-type SUR1/Kir6.2 channels (Rattus norvegicus, UniProt P70673+Q09429); test: Inside-out patch recording of recombinant wild-type channels expressed in COS7 cells; type: biochemical; conditions: SNAP 1 mM in the presence of 1 mM [ATP]i; n = 7
T2 construct: A full-length Kir cDNA and a full-length SUR cDNA were subcloned into the mammalian expression vector; expressed in transfected cells; host or cells: COS7 cells (KATP channel-deficient), pcDNA3.1(-) vectors, GFP cDNA co-transfected as a separate reporter
Method: KATP channel-deficient COS7 cells were plated at a density of 3 × 10^5/dish (35 mm in diameter) and cultured in Dulbecco's modified Eagle's medium supplemented with 10% fetal calf serum. Rat Kir6.2 (GenBank X97041) and rat SUR1 (GenBank X97279) cDNAs were used for expression study. A truncated form of Kir6.2 lacking the last 36 amino acids at the C-terminus was obtained by polymerase chain reaction amplification. Polymerase chain reaction products were cloned into the pCR3.1 vector by using the TA cloning system (Invitrogen Corp., Carlsbad, CA, USA) and then cloned into the pcDNA3.1 (-) vector (Invitrogen Corp.) for mammalian expression. Point mutation of cysteine at position 717 (C717), C806, C1378, C1446, and C1491 within SUR1 to serine (C717S, C806S, C1378S, C1446S, and C1491S) was performed by using the Site-Directed Mutagenesis system (Invitrogen Corp.). All cDNA products were sequenced by using the BigDye terminator cycle sequencing kit and an ABI PRISM 377 DNA sequencer (Applied Biosystems, Foster City, CA) to confirm the sequence. A full-length Kir cDNA and a full-length SUR cDNA were subcloned into the mammalian expression vector pcDNA3.1 (-). For electrophysiological recordings, either wild-type or mutated pcDNA3.1 (-) Kir6.2 alone (1 μg), or pcDNA3.1 (-) Kir6.2 (1 μg) plus pcDNA3.1 (-) SUR1 (3 μg) were transfected into COS7 cells with green fluorescent protein cDNA as a reporter gene by using lipofectamine and Opti-MEN 1 reagents (Life Technologies Inc., Rockville, MD) according to the manufacturer's instructions. After transfection, cells were cultured at 37°C with 95% air and 5% CO2 for 48–72 h before being subjected to electrophysiological recordings.
as §1
We recorded single channel currents at room temperature (20–25°C) using an Axon CNS Multiclamp 700B amplifier, digitized them using an analog-to-digital converter (Axon CNS DigiData 1440A; Axon Instruments, Foster, CA), and stored them into a PC. Sampling frequency of single-channel data was 5 KHz with a low-pass filter (1 KHz). We used pClamp version 10.2 software (Axon Instruments) for data acquisition and analysis. […] Channel open probability (Po) was determined from the ratios of the area under the peaks in the amplitude histograms fitted by a Gaussian distribution. We calculated channel activity as NPo (where N is the number of observed channels in the patch) from data samples of either 30 s (in inside-out recordings), or 60 s (in cell-attached recordings), in the steady state. […]

T1 sequence (Q09429 whole entry): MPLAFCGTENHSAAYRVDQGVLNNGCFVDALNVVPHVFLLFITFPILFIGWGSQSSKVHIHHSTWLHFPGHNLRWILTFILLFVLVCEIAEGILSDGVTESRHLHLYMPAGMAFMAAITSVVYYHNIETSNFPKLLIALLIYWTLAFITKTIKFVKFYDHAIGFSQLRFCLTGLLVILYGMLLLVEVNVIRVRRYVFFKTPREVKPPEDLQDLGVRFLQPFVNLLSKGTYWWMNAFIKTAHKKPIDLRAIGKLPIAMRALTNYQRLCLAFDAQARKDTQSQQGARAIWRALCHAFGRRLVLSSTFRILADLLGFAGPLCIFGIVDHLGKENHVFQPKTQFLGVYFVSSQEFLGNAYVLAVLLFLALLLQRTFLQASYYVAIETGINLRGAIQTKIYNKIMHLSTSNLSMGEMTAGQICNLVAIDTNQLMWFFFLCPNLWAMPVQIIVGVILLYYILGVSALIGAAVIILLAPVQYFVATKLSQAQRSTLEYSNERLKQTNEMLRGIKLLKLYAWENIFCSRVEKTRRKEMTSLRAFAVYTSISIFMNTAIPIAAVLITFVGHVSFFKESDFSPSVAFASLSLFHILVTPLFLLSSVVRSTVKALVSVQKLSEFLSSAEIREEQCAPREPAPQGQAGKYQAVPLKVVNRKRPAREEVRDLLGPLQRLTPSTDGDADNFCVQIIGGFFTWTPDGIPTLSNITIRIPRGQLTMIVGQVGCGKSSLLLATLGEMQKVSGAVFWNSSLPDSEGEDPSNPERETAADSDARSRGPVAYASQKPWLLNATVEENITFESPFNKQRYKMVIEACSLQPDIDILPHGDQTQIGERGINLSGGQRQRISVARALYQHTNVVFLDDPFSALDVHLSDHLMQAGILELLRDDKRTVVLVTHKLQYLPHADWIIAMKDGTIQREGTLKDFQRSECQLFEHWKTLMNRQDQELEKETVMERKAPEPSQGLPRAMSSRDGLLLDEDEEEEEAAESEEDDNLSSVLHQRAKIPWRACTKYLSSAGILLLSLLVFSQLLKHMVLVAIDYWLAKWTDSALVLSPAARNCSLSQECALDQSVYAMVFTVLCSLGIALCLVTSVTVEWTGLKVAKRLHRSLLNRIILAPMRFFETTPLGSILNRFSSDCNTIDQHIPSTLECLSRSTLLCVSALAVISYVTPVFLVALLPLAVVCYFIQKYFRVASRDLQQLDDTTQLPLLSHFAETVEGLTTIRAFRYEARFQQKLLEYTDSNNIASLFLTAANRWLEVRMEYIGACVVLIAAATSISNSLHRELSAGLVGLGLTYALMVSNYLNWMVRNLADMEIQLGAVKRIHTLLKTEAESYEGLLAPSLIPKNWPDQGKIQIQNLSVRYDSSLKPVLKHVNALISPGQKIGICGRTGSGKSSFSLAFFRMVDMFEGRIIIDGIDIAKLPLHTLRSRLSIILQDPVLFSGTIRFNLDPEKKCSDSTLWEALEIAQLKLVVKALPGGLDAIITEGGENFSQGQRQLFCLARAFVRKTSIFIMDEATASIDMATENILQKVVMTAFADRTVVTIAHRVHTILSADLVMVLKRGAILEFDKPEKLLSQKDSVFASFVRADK
T1 sequence (P70673 whole entry): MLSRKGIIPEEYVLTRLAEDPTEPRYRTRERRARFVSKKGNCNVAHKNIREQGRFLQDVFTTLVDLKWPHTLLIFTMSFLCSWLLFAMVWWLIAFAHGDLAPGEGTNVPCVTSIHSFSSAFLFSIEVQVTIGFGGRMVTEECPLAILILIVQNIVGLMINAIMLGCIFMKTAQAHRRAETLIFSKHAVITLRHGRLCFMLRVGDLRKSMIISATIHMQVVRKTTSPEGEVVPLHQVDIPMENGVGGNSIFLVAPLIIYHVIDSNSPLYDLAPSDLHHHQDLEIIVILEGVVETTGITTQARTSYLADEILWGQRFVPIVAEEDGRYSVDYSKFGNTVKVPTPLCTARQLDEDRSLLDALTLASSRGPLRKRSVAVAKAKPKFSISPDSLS
T2 sequence (Q09429 whole entry): as the sequence (Q09429 whole entry) above
T2 sequence (P70673 whole entry): as the sequence (P70673 whole entry) above

washout period after which effects were reversible ([1]; SNAP, data not shown): 2 to 5 min
NPo steady-state value 10 minutes after application of SNAP ([1]; SNL neurons): 0.31 ± 0.09
concentration at which KATP channel activation reaches a saturating plateau ([1]; SS and SNL neurons): ≥ 100 µM
NPo steady-state value 10 minutes after application of SNAP ([1]; SS neurons): 0.27 ± 0.07
effect on recombinant channel activity [2]: significantly activated
Substance: S-nitroso-N-acetylpenicillamine [SNAP]
